Data reported in patent US20200345662A1, “MUSCULAR ATROPHY-INDUCING AGENT USING HYPOMETABOLISM-INDUCING SUBSTANCE T1AM, AND USE THEREOF IN TREATING MUSCULAR HYPERTROPHY” (UNIVERSITY INDUSTRY FOUNDATION, YONSEI […] CAMPUS, priority 2015, published 2020).

What was measured:
[1] = tested on: HSP60; test: Immunoblotting analysis of HSP60 in C2C12 myotubes; assay type: cell-based; settings: T1AM-treated group vs control
Experimental: (§1) C2C12 myoblasts were purchased from American Type Culture Collection (Rockville, Md., USA) and cultured in a DMEM medium containing 4,500 mg/L glucose supplemented with 10% fetal bovine serum (Hyclone, Logan, Utah, USA) and 1% antibiotics/antimycotics Gibco, Burlington, Ontario, Canada). The myoblasts were stored under conditions of 37° C. and 5% CO2. The myoblasts were grown on a 6-well culture plate for immunoblot analysis and measurement of diameters of myotubes. The myoblasts were maintained in each well for 5 days by replacing the medium with a differentiation medium (DMEM containing 2% horse serum and 1% antibiotics/antimycotics) at about 80% confluent state and induced to be differentiated into myotubes. The medium was replaced with a new medium every two days.
(§2) The cells were obtained with a RIPA buffer, degraded by repeated suction through a 21 gauge needle, and the transferred to a 1.5 mL microtube. A sample was cultured on ice for 5 minutes and centrifuged at 13,000 rpm at 4° C. for 10 minutes. A supernatant was obtained with whole-cell soluble lysates and the protein concentration was determined through Bradford assay. […]
(§3) The proteins were electrophoretically transferred from the gel to a nitrocellulose membrane. […] An immunocomplex was detected by the ECL system (GE Healthcare, Fairfield, Conn., USA) and the obtained bands were quantified by ImageJ 1.47t software (NIH, MD, USA). […]

[2] = tested on: Akt1; test: Immunoblotting analysis of p-Akt1 and Akt1 in C2C12 myotubes; assay type: cell-based; settings: T1AM-treated group vs control
Experimental: as §1
(§4) The cells were obtained with a RIPA buffer, degraded by repeated suction through a 21 gauge needle, and the transferred to a 1.5 mL microtube. A sample was cultured on ice for 5 minutes and centrifuged at 13,000 rpm at 4° C. for 10 minutes. A supernatant was obtained with whole-cell soluble lysates and the protein concentration was determined through Bradford assay. To detect AMPK, phospho-AMPK (p-AMPK), FoxO1, p-FoxO1, FoxO3, p-FoxO3, Akt1, p-Akt1, S6K, p-S6K, MuRF1, MAFbx, HSP90, HSP72, HSP60, HSP27, αB-crystallin, and GAPDH, a total of 30 μg of proteins was electrophoresed on 8 to 10% SDS-PAGE.
(§5) The proteins were electrophoretically transferred from the gel to a nitrocellulose membrane. The membrane reacted with a blocking buffer (1X TBS, 0.5% Tween-20 with 5% w/v nonfat dry milk) for 1 hour at room temperature and then washed with 10 mL TBST three times every 10 minutes. Thereafter, the membranes reacted with a primary antibody diluted appropriately with 10 mL TBST (1:500 to 1:10,000) overnight at 4° C. […] An immunocomplex was detected by the ECL system (GE Healthcare, Fairfield, Conn., USA) and the obtained bands were quantified by ImageJ 1.47t software (NIH, MD, USA). […]

[3] = tested on: AMPK; test: Immunoblotting analysis of p-AMPK and AMPK in C2C12 myotubes; assay type: cell-based; settings: T1AM-treated group vs control
Experimental: as §1, §4, §5

[4] = tested on: FoxO1; test: Immunoblotting analysis of p-FoxO1 and FoxO1 in C2C12 myotubes; assay type: cell-based; settings: T1AM-treated group vs control
Experimental: as §1, §4
as §5, with “minutes.” for “minutes. Thereafter, the membranes reacted with a primary antibody diluted appropriately with 10 mL TBST (1:500 to 1:10,000) overnight at 4° C.”
(§6) The cells on each 6-well plate were washed three times with 1× PBS and fixed with 4% paraformaldehyde for 30 minutes at room temperature. […] Fluorescent-labeled cells were detected with a Carl Zeiss LSM750 confocal microscope (Jena, Germany).

[5] = tested on: 26S proteasome; test: Chymotrypsin-like activity of 26S proteasome, cell-based luminescence assay; settings: C2C12 myotubes, T1AM-treated group vs control
Experimental: Two groups of myotubes were trypsinized and then washed with a fresh differentiation medium. Among three determinants of proteasome activities (trypsin-, chemotrypsin- and caspase-like activities), the chemotrypsin-like activity is regarded as representative of the protease capacity of the proteasome. The chemotrypsin-like activity was determined according to the manufacturer's protocol using a Promega Proteasome-Glo cell-based luminescence assay kit (Promega, Madison, Wis., USA) by approximately 7,500 cells measured by a cell counter (Biorad, Hercules, Calif., USA) in 50 μl of the differentiation medium. To confirm the specificity of the analysis, a partial sample containing the same number of cells was pretreated with a proteasome inhibitor, epoxomicin, at a concentration of 10 μM for 30 minutes. The chemotrypsin-like activity was measured by the same process and the result was used as a background signal for analysis. The luminescence was measured with a GloMax 20/20 Luminometer (Promega).

[6] = tested on: MAFbx; test: Immunoblotting analysis of MAFbx in C2C12 myotubes; assay type: cell-based; settings: T1AM treatment vs control
Experimental: as §1, §2, §3

[7] = tested on: heat shock protein 72 (HSP72); test: Immunoblotting analysis of HSP72 in C2C12 myotubes; assay type: cell-based; settings: T1AM-treated group vs control
Experimental: as §1, §2, §3

[8] = tested on: αB-crystallin; test: Immunoblotting analysis of αB-crystallin in C2C12 myotubes; assay type: cell-based; settings: T1AM-treated group vs control
Experimental: as §1, §2, §3

[9] = tested on: MuRF1; test: Immunoblotting analysis of MuRF1 in C2C12 myotubes; assay type: cell-based; settings: T1AM-treated group vs control
Experimental: as §1, §2, §3

[10] = tested on: C2C12 myotubes; test: Measurement of diameter (size) of C2C12 myotubes; assay type: cell-based; settings: 75 μM of T1AM for 6 hours
Experimental: as §1
To verify the effect of T1AM on the size of C2C12 myotubes, the cells were fixed with 4% paraformaldehyde and photographed at 200× magnification on an Axiovert 200 optical microscope. For analysis, the cells were divided into 9 fractions in order to randomly select the cells. The diameter of each myotube was measured using Image J software (NIH, Frederick, Md., USA).
To determine whether T1AM induced muscular atrophy in C2C12 myotubes, cells were photographed under a phase contrast microscope (FIG. 1A) and the diameter was measured at 200× magnification (FIG. 1B).

[11] = tested on: S6K; test: Immunoblotting analysis of p-S6K and S6K in C2C12 myotubes; assay type: cell-based
Experimental: as §1, §2, §3

[12] = tested on: FoxO3; test: Immunoblotting analysis of p-FoxO3 and FoxO3 in C2C12 myotubes; assay type: cell-based; settings: T1AM-treated group vs control
Experimental: as §1, §4
as §5, with “minutes.” for “minutes. Thereafter, the membranes reacted with a primary antibody diluted appropriately with 10 mL TBST (1:500 to 1:10,000) overnight at 4° C.”
as §6

NCCc1ccc(Oc2ccc(O)cc2)c(I)c1 [T1AM, 3-iodothyronamine]
difference in HSP60 expression between the two groups [1]: not statistically significant
expression ratio of p-Akt1/Akt1, lower than control [2]: 0.45 times
non-phosphorylation level of Akt1 between the two groups [2]: similar
phosphorylation level of Akt1 compared to the control [2]: significantly down-regulated
AMPK phosphorylation, increase compared to the control [3]: 2.7 times
expression ratio of p-AMPK/AMPK, higher than control [3]: 2.0 times
total expression levels of AMPK, between the two groups [3]: similar
expression ratio of p-FoxO1/FoxO1, lowered [4]: 0.66 times
phosphorylation level of FoxO1 between the two groups [4]: similar
total expression of FoxO1, higher than control [4]: 2.5 times
chymotrypsin-like activity of proteasome, higher than control [5]: 1.5 times
expression of MAFbx [6]: not affected
expression level of HSP72, down-regulated compared to the control [7]: 0.89 times
expression level of αB-crystallin, down-regulated compared to the control [8]: 0.63 times
expression of MuRF1, higher than control [9]: 1.8 times
size of myotube, decrease compared to vehicle control [10]: 0.13 times
p-S6K level ([11]; T1AM treatment vs control): lowered
expression ratio of p-S6K/S6K, lower than control ([11]; T1AM-treated group vs control): 0.53 times
expression ratio of p-FoxO3/FoxO3, lower than control [12]: 0.39 times
p-FoxO3 level, lowered [12]: 0.58 times
total expression of FoxO3 between T1AM-treated group and control [12]: not different
